Experimental data taken from PubChem BioAssay (NCI).
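Assay format: 96-well plates, 48-hour exposure. GI50 is the concentration that inhibits growth by half. At the TGI there is no net growth.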

Legend:
Test in all cases: DTP human tumour cell line panel, 48 h
T-47D breast = system: T-47D breast
CAKI-1 renal = system: CAKI-1 renal
OVCAR-3 ovarian = system: OVCAR-3 ovarian
RPMI-8226 leukemia = system: RPMI-8226 leukemia
BT-549 breast = system: BT-549 breast
COLO 205 colon = system: COLO 205 colon
SF-268 CNS = system: SF-268 CNS
UO-31 renal = system: UO-31 renal
HCT-116 colon = system: HCT-116 colon
HS 578T breast = system: HS 578T breast

Row | SMILES | GI50 (T-47D breast) [nM] | TGI (T-47D breast) [µM] | GI50 (CAKI-1 renal) [µM] | TGI (CAKI-1 renal) [µM] | GI50 (OVCAR-3 ovarian) [µM] | TGI (OVCAR-3 ovarian) [µM] | GI50 (RPMI-8226 leukemia) [µM] | TGI (RPMI-8226 leukemia) [µM] | GI50 (BT-549 breast) [µM] | TGI (BT-549 breast) [µM] | GI50 (COLO 205 colon) [nM] | TGI (COLO 205 colon) [µM] | GI50 (SF-268 CNS) [µM] | TGI (SF-268 CNS) [µM] | GI50 (UO-31 renal) [nM] | TGI (UO-31 renal) [µM] | GI50 (HCT-116 colon) [nM] | TGI (HCT-116 colon) [µM] | GI50 (HS 578T breast) [µM] | TGI (HS 578T breast) [µM]
1 | C=C1C(=O)O[C@H]2[C@H]1CC/C(COC(=O)/C=C\C(=O)NCc1ccc(Cn3c(=O)sn(-c4ccc(C#N)cc4)c3=O)cc1)=C\CC[C@@]1(C)O[C@@H]21 | 836 | 2.18 | 0.354 | 1.08 | 0.306 | 0.953 | 0.443 | 2.59 | 0.697 | 1.65 | 541 | 1.41 | 0.724 | 1.41 | 468 | 1.07 | 218 | 0.956 | 0.987 | 2.79
2 | COc1cc(C(=O)O[C@H](C(N)=O)[C@]2(C)CO2)c2ccccc2c1 | 10700 | 27.3 | 20.6 | 39.8 | 22.7 | 45.2 | 22.8 | > 100 | 18.5 | 38.9 | 16600 | 39.7 | 14.2 | 36.7 | 33700 | > 100 | 5210 | 15.8 | 16.6 | 41
3 | CN(C)C(=S)SN(C)C(=O)Nc1ccccc1 | – | 99.1 | – | 60.5 | – | 41.2 | – | > 100 | – | > 100 | – | > 100 | – | 99.9 | – | > 94.7 | – | > 67.4 | – | > 100
4 | CCOC(=O)c1c(C)n(Cc2ccc(OC)cc2)c2c1cc(O)c1[nH]c3c(c12)CCCC3 | 2020 | 38.8 | 16.4 | 54.9 | 3.73 | 18.6 | 3.78 | 58 | 4.21 | 27.8 | 86.5 | 8.35 | 3.47 | 18.7 | 1840 | 4.05 | 2740 | 12.1 | 3.26 | 21.8
5 | Nc1nccc(-c2c(-c3ccc(F)cc3)ncn2CCCN2CCOCC2)n1 | > 25000 | > 25 | > 25 | > 25 | > 25 | > 25 | > 25 | > 25 | > 25 | > 25 | > 25000 | > 25 | > 25 | > 25 | 11600 | > 25 | > 25000 | > 25 | > 25 | > 25
6 | NCCCCn1c2c(c3ccccc3c1=O)C(=O)c1ccccc1-2 | 631 | 6.81 | 0.0447 | 0.555 | 0.502 | 4.22 | 0.0887 | 0.932 | 0.754 | 2.5 | 920 | 11 | 0.208 | 1.86 | 123 | 1.45 | 92 | 1.76 | 0.538 | 4.75
